Earlier results in patent publication US20220340870A1, “FUNCTIONAL NEUROMODULATORY ASSEMBLOIDS” (The Board of Trustees of the Leland Stanford Junior …, priority 2019, published 2022).

Target: Smo (Homo sapiens, UniProt Q99835)
Conditions: interacting with the Smo heptahelical domain

Smo, sequence (Q99835 28-787): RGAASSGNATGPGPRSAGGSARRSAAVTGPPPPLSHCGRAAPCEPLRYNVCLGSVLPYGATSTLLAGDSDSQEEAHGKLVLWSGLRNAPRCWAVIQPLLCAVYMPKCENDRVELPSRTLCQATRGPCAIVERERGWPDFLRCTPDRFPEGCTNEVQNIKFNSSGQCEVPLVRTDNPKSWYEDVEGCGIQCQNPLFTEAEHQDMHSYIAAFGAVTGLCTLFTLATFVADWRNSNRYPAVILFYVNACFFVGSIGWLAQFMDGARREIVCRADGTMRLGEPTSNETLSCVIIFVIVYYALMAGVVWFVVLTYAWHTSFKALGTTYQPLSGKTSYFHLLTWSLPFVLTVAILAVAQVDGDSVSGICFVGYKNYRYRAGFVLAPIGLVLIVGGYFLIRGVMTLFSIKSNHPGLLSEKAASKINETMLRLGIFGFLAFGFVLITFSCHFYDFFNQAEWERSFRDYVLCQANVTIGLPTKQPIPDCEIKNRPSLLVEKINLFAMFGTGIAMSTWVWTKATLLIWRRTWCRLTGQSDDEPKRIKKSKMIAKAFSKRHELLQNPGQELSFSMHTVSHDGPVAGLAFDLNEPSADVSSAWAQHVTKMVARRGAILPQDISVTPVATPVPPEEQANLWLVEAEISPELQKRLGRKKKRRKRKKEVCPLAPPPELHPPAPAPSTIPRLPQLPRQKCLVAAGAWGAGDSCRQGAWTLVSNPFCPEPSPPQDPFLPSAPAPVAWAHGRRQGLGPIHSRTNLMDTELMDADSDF

Q: With CNC1CCC(N(Cc2cccc(-c3ccncc3)c2)C(=O)c2sc3ccccc3c2Cl)CC1 (stereo not shown) [SAG] as the molecule, how does the Kd read?
A: 59 nM
